# Source: PMC10475101, “Selective steroidogenic cytochrome P450 haem iron ligation by steroid-derived isonitriles” (Communications Chemistry, 2023)
# Entries after “also recorded” stand apart in the source; their conditions may differ.
# Tests used:
# [1] = target: T1, CYP3A4 (Homo sapiens, UniProt P08684); test: in vitro; format: binding
# T1 construct: made in house
# Method: (§1) (Adapted from DeVore, et al.)[25] Ligand interaction with the heme iron was evaluated by titrating ligands into a cuvette containing purified CYP17A1[14], CYP2D6 L230D/L231R[26], or CYP3A4[27] and measured using a UV-visible scanning spectrophotometer. Enzyme was diluted to 0.2 µM in 100 mM potassium phosphate buffer (pH 7.4), 20% glycerol, and 100 mM sodium chloride and divided equally between two 5 mL cuvettes to evaluate high-affinity binding. Ligands dissolved in dimethylsulfoxide (DMSO) were added to the sample cuvette and an equal volume of DMSO to the reference cuvette. Difference spectra were recorded from 300 to 500 nm after equilibration of enzyme and ligand. Binding to the enzyme was measured as the difference in maximal and minimal absorbance: A387—A419 for pregnanolone and 3-formyl pregnanolone, and A435—A393 for compound 1 with CYP17A1; A434—A414 for compound 1 with CYP3A4 and CYP2D6. The dissociation constant and maximum spectral change were calculated using tight-binding or quadratic equation. All data fitting was accomplished using GraphPad Prism 9. Details of fitting are provided in Supplementary Information, and numerical data used to generate graphs in Figs. 2, 4 and 5 are provided in Supplementary Data 3 in Excel format.
# [2] = target: CYP106A2 (Priestia megaterium, UniProt Q06069); test: Absorbance difference spectra titration of CYP106A2; format: binding, bacterial; details: 1 µM CYP106A2; for difference spectrum increase / λmax on binding to CYP106A2: 393 nm = type I, 435 nm = heme Fe-isonitrile bond
# Method: Fig. 5 CYP106A2 interaction with steroidal isonitriles. […] Maximum concentration of 2 (light blue trace) is 20 µM. […] Maximum concentration of 4 is ~10 µM (blue trace). C Overlay of 800 MHz ^1H,^15N-TROSY-HSQC spectra of ^15N-Gly-labeled CYP106A2 with levopimaric acid p-benzoquinone Diels-Alder adduct bound after reduction with sodium dithionite and treatment with carbon monoxide (red), or with 7,17-(bis)isonitrile 4 (blue) after anaerobic reduction with sodium dithionite.
# [3] = target: T2, CYP17A1 (Homo sapiens, UniProt P05093); test: Ligand binding assay (UV-visible difference spectra titration); details: for Soret peak after titration (heme spectral shift from 417 nm water-bound): ferric CYP17A1, 430 nm = Fe—C isonitrile bond, 424 nm = type II Fe—N
# T2 construct: made in house
# T2 sequence (P05093 1-508): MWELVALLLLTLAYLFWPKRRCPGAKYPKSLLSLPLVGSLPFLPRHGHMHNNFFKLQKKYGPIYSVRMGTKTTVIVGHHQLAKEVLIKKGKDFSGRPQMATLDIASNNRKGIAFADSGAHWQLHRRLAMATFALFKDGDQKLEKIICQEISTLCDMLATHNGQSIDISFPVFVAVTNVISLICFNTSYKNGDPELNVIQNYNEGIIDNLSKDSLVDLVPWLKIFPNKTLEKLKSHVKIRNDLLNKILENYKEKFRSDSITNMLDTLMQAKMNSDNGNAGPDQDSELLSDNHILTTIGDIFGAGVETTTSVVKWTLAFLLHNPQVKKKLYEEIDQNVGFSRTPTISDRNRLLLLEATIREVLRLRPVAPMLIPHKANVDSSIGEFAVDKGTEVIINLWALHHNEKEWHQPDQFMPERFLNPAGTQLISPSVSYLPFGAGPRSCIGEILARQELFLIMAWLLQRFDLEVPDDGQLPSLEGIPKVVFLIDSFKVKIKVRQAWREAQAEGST
# Method: as §1
# [4] = target: T3, CYP17A1 (Homo sapiens, UniProt P05093); test: biochemical
# T3 construct: made in house
# T3 sequence (P05093 24-508 limits assumed): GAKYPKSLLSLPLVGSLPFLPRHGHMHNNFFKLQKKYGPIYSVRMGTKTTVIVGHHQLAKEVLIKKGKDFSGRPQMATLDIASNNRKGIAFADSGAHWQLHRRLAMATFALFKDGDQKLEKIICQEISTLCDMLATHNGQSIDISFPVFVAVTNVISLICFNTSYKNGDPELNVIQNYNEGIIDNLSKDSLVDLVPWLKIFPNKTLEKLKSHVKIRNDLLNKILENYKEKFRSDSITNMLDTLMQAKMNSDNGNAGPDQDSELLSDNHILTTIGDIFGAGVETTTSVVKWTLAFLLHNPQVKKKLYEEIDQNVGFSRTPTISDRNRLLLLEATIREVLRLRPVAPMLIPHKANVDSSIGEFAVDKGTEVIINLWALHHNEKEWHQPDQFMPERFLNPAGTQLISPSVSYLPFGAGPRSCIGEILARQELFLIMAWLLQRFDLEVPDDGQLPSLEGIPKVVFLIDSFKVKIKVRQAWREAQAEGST
# Method: Metabolic activity of CYP17A1 was evaluated by measuring 17α-hydroxylation of progesterone as detected by HPLC with UV detection at 240 nm. A 1:4 ratio of CYP17A1 to recombinant NADPH-cytochrome P450 reductase was mixed and incubated on ice for 20 min. […] Reaction vials were warmed to 37 °C for 3 min, then catalysis was initiated by adding NADPH to a final concentration of 1 mM. After 10 min, metabolism was quenched by adding 300 µL of 20% trichloroacetic acid and placed on ice. The reaction vials were centrifuged to pellet the precipitated protein, then the supernatant was injected onto a C18 column for HPLC identification of product. Metabolite elution was normalized to β-estradiol as an internal standard. A standard curve of known product concentrations was used to convert normalized area under curve to amount of product produced. A four-parameter variable-slope equation was used to fit the data and calculate IC50 values for inhibitors using GraphPad Prism 9.
# 195 Metabolic activity of CYP17A1 was evaluated by measuring 17α-hydroxylation of progesterone as detected
# 196 by HPLC with UV detection at 240 nm. A 1:4 ratio of CYP17A1 to recombinant NADPH-cytochrome P450
# 197 reductase was mixed and incubated on ice for 20 minutes. This mixture was added to buffer (50 mM Tris, pH
# 199 Reaction vials were warmed to 37 °C for three minutes, then catalysis was initiated by adding NADPH to a
# 200 final concentration of 1 mM. After 10 minutes, metabolism was quenched by adding 300 µL of 20%
# 201 trichloroacetic acid and placed on ice. The reaction vials were centrifuged to pellet the precipitated protein,
# 202 then the supernatant was injected onto a C18 column (Phenomenex, Luna, 50 x 4.6 mm) for HPLC. The 30-
# 203 minute HPLC method ran at 0.8 mL/min and started with a mobile phase of 60% acetonitrile, 40% water with
# 204 0.2% acetic acid for five minutes, in creased to 80% acetonitrile over 10 minutes, held at 80% acetonitrile for
# 205 five minutes, 100% acetonitrile for five minutes, then returned to 60% acetonitrile to prepare for the next
# 206 sample. Metabolite elution was normalized to β-estradiol as an internal standard. A standard curve of known
# 207 product concentrations was used to convert normalized area under curve to amount of product produced. A
# 208 four-parameter variable-slope equation (Y=Ymin + (Ymax-Ymin)/(1+(IC50/X)^(Hill Slope))) was used to fit the data
# 209 and calculate IC50 values for inhibitors using GraphPad Prism 9.
# Chain of CYP106A2 (Q06069 whole entry): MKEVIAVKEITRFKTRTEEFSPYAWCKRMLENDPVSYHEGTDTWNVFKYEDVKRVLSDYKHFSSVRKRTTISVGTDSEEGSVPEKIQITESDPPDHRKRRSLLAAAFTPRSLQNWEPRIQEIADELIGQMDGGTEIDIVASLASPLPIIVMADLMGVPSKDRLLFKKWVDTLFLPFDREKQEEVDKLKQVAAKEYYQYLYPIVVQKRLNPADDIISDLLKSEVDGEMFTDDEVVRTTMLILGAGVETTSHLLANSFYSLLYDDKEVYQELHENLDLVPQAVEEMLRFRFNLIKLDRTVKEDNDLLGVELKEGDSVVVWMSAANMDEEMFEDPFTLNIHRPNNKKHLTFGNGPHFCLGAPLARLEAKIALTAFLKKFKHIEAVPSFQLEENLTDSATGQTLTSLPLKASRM
# T1 sequence (P08684 whole entry): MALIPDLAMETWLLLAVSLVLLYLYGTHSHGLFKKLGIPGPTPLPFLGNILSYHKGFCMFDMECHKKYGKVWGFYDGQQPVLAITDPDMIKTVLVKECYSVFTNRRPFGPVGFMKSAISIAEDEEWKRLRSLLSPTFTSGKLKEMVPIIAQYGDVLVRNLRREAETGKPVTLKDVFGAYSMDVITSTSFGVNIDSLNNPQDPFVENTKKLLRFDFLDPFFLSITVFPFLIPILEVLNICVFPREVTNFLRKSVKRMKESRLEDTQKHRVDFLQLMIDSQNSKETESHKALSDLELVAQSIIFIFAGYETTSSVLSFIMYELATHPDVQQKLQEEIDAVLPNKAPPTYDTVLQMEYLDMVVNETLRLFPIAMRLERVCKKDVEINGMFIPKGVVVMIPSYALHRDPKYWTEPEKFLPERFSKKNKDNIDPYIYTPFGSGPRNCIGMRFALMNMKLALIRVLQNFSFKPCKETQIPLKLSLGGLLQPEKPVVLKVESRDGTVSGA
Structure (SMILES),difference spectrum increase / λmax on binding to CYP106A2 [2] [nm],Soret peak after titration (heme spectral shift from 417 nm water-bound) [3] [nm],spectral response / binding mode on CYP106A2 [2],also measured
"CC(=O)[C@H]1CC[C@H]2[C@@H]3CC[C@H]4C[C@@H](OC=O)CC[C@]4(C)[C@H]3CC[C@]12C [3β-formyl-5α-pregnanalone, reference compound]",–,–,–,"Kd fold higher than 20-(R)-1 ([1]; CYP3A4, parent steroid versus 20-(R)-1): ~ 20 fold; Kd ([1]; protein 200 nM, 5 cm cuvette, tight-binding or quadratic equation, Fig. 4B: n = 3, 95% CI 120–215 nM, read-out: dissociation constant (Kd)): ~3200 nM"
[C-]#[N+][C@H]1CC[C@H]2[C@@H]3CC=C4C[C@@H](OC=O)CC[C@]4(C)[C@H]3CC[C@]12C [Compound 3],393,–,–,–
C[C@]12CC[C@H](O)CC1=CC[C@@H]1[C@@H]2CC[C@]2(C)C(c3cccnc3)=CC[C@@H]12 [abiraterone],–,424,–,"Kd ([3]; protein 200 nM, 95% CI undefined to 3.8 nM, read-out: dissociation constant estimate (tight binding equation fit)): 0.044 nM; slope of the inhibition curve ([4]; CYP17A1 progesterone hydroxylation): 1.1; IC50 fold lower than for 1 ([4]; abiraterone versus 1): 27 fold; IC50 ([4]; triplicate, four-parameter variable-slope fit, read-out: IC50, CYP17A1 progesterone hydroxylation): 47 nM"
[C-]#[N+]C1C=C2C[C@@H](OC=O)CC[C@]2(C)[C@H]2CC[C@]3(C)[C@@H]([N+]#[C-])CC[C@H]3[C@H]12 (stereo partly shown) [Compound 4],435,–,does form an iron-isonitrile bond; also recorded: bind with the shift expected for Fe—CN—R bond formation,–
[C-]#[N+][C@H]1CC[C@H]2[C@@H]3CC[C@H]4C[C@@H](OC=O)CC[C@]4(C)[C@H]3CC[C@]12C [Compound 2],393,420,weak type I (substrate-like) blue shift,–
